According to publication PMC3480357, “Fragment-Hopping-Based Discovery of a Novel Chemical Series of Proto-Oncogene PIM-1 Kinase Inhibitors” (PLoS ONE, 2012):
Where two headings read alike, the source gives them in different places.

Key:
Assay in all cases: ProQinase kinase panel, % inhibition at fixed concentration
Assay type in all cases: biochemical
FGF-R1 = FGF-R1 (Homo sapiens, UniProt P11362); settings: for inhibition at 10 µM: inhibitor at 10 µM
Procedure: (§1) Once compounds 7 and 8 were synthesized, a pairwise comparison was performed to strictly evaluate the real impact of this fragment-hopping where imidazopyridazine is replaced by triazolopyridine.

EGF-R = EGF-R (Homo sapiens, UniProt P00533)
Procedure: as §1

PAK1 = PAK1 (Homo sapiens, UniProt Q13153); settings: read-out: PAK1 percentage of inhibition
Procedure: as §1

B-RAF-V600E = B-RAF-V600E (Homo sapiens, UniProt P15056, V600E)
Procedure: as §1

JAK2 = JAK2 (Homo sapiens, UniProt O60674); settings: average of two data points, read-out: JAK2 percentage of inhibition; for inhibition at 10 µM: inhibitor at 10 µM
Procedure: as §1

DYRK1A = DYRK1A (Homo sapiens, UniProt Q13627); settings: for inhibition at 10 µM: inhibitor at 10 µM
Procedure: as §1

SGK1 = molecular target: T1, SGK1 (Homo sapiens, UniProt O00141); settings: for inhibition at 10 µM: inhibitor at 10 µM
T1 sequence (O00141 1-431): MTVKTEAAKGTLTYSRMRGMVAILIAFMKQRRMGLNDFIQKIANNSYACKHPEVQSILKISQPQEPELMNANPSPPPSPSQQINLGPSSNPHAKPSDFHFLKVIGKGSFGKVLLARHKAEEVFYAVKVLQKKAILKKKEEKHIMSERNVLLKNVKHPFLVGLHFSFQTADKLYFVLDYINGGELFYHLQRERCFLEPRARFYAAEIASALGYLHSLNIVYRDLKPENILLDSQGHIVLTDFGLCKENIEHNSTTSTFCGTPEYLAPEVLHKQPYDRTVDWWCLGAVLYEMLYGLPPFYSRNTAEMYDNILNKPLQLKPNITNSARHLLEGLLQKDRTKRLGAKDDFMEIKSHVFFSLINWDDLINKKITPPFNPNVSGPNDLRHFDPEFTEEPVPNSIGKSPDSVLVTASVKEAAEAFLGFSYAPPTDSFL
Procedure: as §1

CK1-α1 = CK1-α1 (Homo sapiens, UniProt P48729); settings: for inhibition at 10 µM: inhibitor at 10 µM
Procedure: as §1

IGF1-R = IGF1-R (Homo sapiens, UniProt P08069); settings: read-out: IGF1-R percentage of inhibition
Procedure: as §1

PDGFR-α = PDGFR-α (Homo sapiens, UniProt P16234)
Procedure: as §1

AKT1 = AKT1 (Homo sapiens, UniProt P31749); settings: read-out: AKT1 percentage of inhibition
Procedure: as §1

RPS6KA1 = RPS6KA1 (Homo sapiens, UniProt Q15418)
Procedure: as §1

MST1 = molecular target: T2, MST1 (Homo sapiens, UniProt Q13043); settings: for inhibition at 10 µM: inhibitor at 10 µM
T2 sequence (Q13043 1-487): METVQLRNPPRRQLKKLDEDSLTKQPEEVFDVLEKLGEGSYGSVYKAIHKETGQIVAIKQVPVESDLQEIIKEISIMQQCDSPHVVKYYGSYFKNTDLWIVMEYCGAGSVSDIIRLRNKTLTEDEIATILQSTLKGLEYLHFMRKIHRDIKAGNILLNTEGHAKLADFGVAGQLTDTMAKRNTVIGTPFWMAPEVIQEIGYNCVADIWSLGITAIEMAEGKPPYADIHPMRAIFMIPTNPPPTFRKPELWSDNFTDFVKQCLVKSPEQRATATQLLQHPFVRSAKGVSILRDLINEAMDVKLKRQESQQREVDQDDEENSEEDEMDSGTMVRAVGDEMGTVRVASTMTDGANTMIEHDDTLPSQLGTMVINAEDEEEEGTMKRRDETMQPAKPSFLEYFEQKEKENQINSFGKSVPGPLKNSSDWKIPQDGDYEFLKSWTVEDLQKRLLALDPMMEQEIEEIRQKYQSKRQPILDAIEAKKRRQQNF
Procedure: as §1

ARK5 = molecular target: T3, ARK5 (Homo sapiens, UniProt O60285)
T3 sequence (O60285 1-661): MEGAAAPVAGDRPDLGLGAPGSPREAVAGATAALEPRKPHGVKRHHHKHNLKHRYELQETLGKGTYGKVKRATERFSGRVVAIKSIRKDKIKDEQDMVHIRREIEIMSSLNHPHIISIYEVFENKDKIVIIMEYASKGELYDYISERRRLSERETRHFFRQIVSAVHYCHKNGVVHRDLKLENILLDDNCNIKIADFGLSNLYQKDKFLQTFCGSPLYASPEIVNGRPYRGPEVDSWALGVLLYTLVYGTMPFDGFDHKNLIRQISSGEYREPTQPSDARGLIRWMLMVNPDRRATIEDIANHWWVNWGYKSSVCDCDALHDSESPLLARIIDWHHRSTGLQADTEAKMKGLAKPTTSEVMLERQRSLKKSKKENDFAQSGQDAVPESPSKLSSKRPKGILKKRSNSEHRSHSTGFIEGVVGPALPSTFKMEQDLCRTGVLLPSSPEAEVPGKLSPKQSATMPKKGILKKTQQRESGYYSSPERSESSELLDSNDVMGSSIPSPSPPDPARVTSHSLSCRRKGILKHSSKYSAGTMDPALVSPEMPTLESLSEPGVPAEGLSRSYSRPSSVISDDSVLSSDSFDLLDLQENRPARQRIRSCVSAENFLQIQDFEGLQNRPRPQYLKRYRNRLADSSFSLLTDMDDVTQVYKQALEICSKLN
Procedure: as §1

MET = MET (Homo sapiens, UniProt P08581); settings: read-out: MET percentage of inhibition
Procedure: as §1

[1] = average of two data points, read-out: FGF-R1 percentage of inhibition
[2] = average of two data points, read-out: DYRK1A percentage of inhibition
[3] = average of two data points, read-out: SGK1 percentage of inhibition
[4] = average of two data points, read-out: CK1-α1 percentage of inhibition
[5] = average of two data points, read-out: MST1 percentage of inhibition
[6] = inhibitor at 5 µM, average of two data points
[7] = compound 8 (5 µM) versus compound 3 (10 µM)
[8] = compound 8 (5 µM) vs compound 3 (10 µM)
[9] = compound 7 vs compound 1, 10 µM
[10] = inhibitor at 10 µM, average of two data points

Sequence of IGF1-R (P08069 31-1367, species assumed): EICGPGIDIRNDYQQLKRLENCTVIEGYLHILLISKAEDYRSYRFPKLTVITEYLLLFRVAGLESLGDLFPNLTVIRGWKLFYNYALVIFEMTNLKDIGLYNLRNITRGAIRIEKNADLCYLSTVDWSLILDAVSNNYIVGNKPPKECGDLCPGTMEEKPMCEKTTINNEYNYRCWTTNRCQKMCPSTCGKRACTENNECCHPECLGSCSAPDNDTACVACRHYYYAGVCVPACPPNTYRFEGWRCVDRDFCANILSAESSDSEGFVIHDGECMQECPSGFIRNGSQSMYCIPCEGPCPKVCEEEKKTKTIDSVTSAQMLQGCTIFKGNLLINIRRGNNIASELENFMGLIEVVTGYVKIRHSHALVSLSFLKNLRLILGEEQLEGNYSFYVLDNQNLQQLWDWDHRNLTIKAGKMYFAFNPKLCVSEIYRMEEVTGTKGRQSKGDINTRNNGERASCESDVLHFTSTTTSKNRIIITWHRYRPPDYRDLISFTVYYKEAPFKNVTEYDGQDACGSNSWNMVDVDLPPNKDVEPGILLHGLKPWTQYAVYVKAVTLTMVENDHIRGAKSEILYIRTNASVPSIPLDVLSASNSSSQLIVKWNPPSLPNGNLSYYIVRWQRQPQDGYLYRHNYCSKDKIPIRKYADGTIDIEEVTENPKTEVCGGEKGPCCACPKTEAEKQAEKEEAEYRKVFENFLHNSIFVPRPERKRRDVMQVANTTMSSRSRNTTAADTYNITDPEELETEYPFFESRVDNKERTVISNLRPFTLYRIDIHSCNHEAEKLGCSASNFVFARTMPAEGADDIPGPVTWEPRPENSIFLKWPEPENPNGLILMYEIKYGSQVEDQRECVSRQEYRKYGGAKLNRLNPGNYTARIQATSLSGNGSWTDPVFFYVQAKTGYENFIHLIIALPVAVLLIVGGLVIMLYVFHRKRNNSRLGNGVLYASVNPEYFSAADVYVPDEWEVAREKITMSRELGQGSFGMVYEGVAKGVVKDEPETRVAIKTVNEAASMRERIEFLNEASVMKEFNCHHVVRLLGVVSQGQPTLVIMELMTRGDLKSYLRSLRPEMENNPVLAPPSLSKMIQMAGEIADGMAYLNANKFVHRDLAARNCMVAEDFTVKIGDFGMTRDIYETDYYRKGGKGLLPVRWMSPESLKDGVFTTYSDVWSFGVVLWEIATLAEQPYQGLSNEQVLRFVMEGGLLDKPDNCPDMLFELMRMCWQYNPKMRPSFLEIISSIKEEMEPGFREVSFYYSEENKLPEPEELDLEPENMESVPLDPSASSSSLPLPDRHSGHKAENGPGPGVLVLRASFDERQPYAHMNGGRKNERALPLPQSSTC
Sequence of FGF-R1 (P11362 22-822, species assumed): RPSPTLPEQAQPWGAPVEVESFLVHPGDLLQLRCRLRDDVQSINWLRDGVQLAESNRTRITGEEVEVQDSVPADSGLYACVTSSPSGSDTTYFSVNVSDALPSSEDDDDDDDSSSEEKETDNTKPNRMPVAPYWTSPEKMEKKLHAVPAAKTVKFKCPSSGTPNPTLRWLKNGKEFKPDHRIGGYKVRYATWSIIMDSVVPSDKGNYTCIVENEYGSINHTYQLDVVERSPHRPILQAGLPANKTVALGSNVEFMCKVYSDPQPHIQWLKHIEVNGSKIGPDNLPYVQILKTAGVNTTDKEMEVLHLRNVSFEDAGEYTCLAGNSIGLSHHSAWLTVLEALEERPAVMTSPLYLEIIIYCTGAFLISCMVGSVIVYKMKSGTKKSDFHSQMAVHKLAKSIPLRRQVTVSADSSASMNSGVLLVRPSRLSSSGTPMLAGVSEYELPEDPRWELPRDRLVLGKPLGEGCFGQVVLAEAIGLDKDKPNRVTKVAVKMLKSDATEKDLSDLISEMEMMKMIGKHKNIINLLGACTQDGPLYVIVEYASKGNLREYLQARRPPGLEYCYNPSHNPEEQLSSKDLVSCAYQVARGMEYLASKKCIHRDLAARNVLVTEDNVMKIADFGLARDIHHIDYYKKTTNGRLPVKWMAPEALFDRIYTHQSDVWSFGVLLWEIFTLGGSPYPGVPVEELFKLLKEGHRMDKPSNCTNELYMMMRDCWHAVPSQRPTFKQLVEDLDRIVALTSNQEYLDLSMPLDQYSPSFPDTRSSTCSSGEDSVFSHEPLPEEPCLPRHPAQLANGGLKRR
Sequence of PAK1 (Q13153 whole entry): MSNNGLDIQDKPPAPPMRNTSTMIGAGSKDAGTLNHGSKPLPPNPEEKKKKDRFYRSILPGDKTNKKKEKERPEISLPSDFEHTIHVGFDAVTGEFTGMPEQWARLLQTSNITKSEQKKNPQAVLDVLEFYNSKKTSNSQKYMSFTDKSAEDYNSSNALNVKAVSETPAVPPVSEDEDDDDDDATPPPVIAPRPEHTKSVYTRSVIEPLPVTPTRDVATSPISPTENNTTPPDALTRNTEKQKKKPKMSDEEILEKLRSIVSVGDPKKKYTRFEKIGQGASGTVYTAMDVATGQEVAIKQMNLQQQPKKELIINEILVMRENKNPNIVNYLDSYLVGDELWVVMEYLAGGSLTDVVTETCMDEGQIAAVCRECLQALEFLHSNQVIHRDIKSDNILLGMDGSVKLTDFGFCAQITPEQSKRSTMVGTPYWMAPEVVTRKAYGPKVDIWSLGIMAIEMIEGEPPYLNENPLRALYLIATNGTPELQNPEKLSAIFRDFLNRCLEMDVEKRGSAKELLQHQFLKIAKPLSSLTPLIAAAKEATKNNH
Sequence of AKT1 (P31749 whole entry, species assumed): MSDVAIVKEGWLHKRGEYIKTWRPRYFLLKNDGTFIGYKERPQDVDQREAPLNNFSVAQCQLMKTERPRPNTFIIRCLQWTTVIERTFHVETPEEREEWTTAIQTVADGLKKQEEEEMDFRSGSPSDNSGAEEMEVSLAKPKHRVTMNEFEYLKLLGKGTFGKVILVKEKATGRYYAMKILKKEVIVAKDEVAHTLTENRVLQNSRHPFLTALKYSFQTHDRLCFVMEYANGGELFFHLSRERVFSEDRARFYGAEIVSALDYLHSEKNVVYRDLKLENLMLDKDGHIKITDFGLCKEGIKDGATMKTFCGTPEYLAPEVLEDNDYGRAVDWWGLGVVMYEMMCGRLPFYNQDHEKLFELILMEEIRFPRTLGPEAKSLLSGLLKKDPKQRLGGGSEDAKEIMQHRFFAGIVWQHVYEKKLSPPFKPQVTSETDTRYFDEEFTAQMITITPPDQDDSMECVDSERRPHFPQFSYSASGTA
Sequence of MET (P08581 25-1390): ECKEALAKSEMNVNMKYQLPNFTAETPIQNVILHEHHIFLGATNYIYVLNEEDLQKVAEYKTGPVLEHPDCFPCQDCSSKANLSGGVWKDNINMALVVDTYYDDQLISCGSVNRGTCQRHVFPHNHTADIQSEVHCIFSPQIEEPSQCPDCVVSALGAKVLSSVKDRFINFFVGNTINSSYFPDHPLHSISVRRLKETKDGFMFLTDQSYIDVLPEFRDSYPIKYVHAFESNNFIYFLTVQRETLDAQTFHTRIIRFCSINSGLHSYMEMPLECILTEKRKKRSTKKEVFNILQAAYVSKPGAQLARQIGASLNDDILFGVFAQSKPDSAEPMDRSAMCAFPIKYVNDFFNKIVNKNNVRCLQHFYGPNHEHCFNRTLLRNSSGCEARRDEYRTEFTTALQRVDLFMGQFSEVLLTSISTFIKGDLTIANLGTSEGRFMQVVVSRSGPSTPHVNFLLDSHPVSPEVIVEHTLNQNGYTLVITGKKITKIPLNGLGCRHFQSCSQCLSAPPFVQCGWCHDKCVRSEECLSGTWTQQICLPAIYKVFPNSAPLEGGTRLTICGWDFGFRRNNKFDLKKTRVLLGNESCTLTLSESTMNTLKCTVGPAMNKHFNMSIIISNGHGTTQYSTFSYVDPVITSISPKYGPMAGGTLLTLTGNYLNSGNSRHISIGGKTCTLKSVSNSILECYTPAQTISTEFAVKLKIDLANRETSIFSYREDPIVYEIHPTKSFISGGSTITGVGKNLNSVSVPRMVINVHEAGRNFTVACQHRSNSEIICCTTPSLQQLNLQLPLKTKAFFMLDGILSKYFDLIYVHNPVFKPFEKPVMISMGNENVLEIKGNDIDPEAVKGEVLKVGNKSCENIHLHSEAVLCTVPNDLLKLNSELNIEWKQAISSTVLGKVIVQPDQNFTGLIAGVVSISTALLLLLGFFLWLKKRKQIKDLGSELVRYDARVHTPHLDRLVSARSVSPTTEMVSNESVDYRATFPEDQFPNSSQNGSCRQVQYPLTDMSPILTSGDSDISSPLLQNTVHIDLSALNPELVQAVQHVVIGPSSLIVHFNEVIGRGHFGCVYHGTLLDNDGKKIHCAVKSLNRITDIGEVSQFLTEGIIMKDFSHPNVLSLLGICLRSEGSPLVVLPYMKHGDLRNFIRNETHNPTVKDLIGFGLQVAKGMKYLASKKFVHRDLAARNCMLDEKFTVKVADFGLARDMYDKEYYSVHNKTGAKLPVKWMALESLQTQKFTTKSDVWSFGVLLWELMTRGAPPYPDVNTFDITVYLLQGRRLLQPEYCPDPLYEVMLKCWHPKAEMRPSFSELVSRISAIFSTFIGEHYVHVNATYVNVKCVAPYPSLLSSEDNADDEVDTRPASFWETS
Sequence of CK1-α1 (P48729 whole entry): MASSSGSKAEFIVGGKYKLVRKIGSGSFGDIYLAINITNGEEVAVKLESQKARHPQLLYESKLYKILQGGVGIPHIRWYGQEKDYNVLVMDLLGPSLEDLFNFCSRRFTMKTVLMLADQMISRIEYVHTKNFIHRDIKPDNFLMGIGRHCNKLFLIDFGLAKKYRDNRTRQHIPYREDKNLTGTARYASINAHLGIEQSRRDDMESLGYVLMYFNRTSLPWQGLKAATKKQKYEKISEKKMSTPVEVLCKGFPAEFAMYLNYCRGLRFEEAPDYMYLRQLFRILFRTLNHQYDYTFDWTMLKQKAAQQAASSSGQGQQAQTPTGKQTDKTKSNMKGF

Structure (SMILES): CN1CCC(CNc2ccc3ncc(-c4cccc(OC(F)(F)F)c4)n3n2)CC1 [Compound 3, reference compound]
- inhibition at 10 µM (FGF-R1; [1]): 65%
- inhibition at 10 µM (EGF-R; read-out: EGF-R percentage of inhibition): 32%
- inhibition at 5 µM (PAK1): 8%
- inhibition at 10 µM (B-RAF-V600E; read-out: B-RAF-V600E percentage of inhibition): 41%
- inhibition at 10 µM (JAK2): 3%
- inhibition at 10 µM (DYRK1A; [2]): 19%
- inhibition at 10 µM (SGK1; [3]): 55%
- inhibition at 10 µM (CK1-α1; [4]): 0%
- inhibition at 10 µM (IGF1-R): 53%
- inhibition at 10 µM (PDGFR-α; read-out: PDGFR-α percentage of inhibition): 92%
- inhibition at 10 µM (AKT1): 0%
- inhibition at 10 µM (RPS6KA1; read-out: RPS6KA1 percentage of inhibition): 48%
- inhibition at 10 µM (MST1; [5]): 60%
- inhibition at 10 µM (ARK5; read-out: ARK5 percentage of inhibition): 42%
- inhibition at 10 µM (MET): 12%

Structure (SMILES): CN1CCC(CNc2ccc3nnn(-c4cccc(OC(F)(F)F)c4)c3n2)CC1 [Compound 8, (1-Methyl-piperidin-4-ylmethyl)-[3-(3-trifluoromethoxy-phenyl)-3H-[1], [2], [3]triazolo[4,5-b]pyridin-5-yl]-amine]
- inhibition at 5 µM (FGF-R1; inhibitor at 5 µM, average of two data points, read-out: FGF-R1 percentage of inhibition): 16%
- inhibition at 5 µM (EGF-R; inhibitor at 5 µM, average of two data points, read-out: EGF-R percentage of inhibition): 18%
- inhibition at 5 µM (PAK1; [6]): 2%
- inhibition at 5 µM (B-RAF-V600E; inhibitor at 5 µM, average of two data points, read-out: B-RAF-V600E percentage of inhibition): 10%
- inhibition at 5 µM (JAK2; inhibitor at 5 µM): 0%
- inhibition at 5 µM (DYRK1A; inhibitor at 5 µM, average of two data points, read-out: DYRK1A percentage of inhibition): 3%
- SGK1 increment in percentage of inhibition (SGK1; [7]): > 50%
- SGK1 improvement in percentage of inhibition (SGK1; [8]): c (This designation indicates that the improvement in percentage of inhibition was greater than 50%)
- inhibition at 5 µM (SGK1; inhibitor at 5 µM, average of two data points, read-out: SGK1 percentage of inhibition): 0%
- inhibition at 5 µM (CK1-α1; inhibitor at 5 µM, average of two data points, read-out: CK1-α1 percentage of inhibition): 8%
- inhibition at 5 µM (IGF1-R; [6]): 25%
- PDGFR-α increment in percentage of inhibition (PDGFR-α; [7]): > 50%
- PDGFR-α improvement in percentage of inhibition (PDGFR-α; [8]): c (This designation indicates that the improvement in percentage of inhibition was greater than 50%)
- inhibition at 5 µM (PDGFR-α; inhibitor at 5 µM, average of two data points, read-out: PDGFR-α percentage of inhibition): 20%
- inhibition at 5 µM (AKT1; [6]): 0%
- inhibition at 5 µM (RPS6KA1; inhibitor at 5 µM, average of two data points, read-out: RPS6KA1 percentage of inhibition): 37%
- inhibition at 5 µM (MST1; inhibitor at 5 µM, average of two data points, read-out: MST1 percentage of inhibition): 20%
- inhibition at 5 µM (ARK5; inhibitor at 5 µM, average of two data points, read-out: ARK5 percentage of inhibition): 18%
- inhibition at 5 µM (MET; [6]): 6%

Structure (SMILES): Oc1ccc(-n2nnc3ccc(NCc4ccc(F)cc4)nc32)cc1 [Compound 7, 4-[5-(4-Fluoro-benzylamino)-[1], [2], [3]triazolo[4,5-b]pyridin-3-yl]-phenol]
- FGF-R1 improvement in percentage of inhibition (FGF-R1; [9]): c (This designation indicates that the improvement in percentage of inhibition was equal or greater than 50%)
- inhibition at 10 µM (FGF-R1; [1]): 19%
- EGF-R improvement in percentage of inhibition (EGF-R; [9]): b (This designation indicates that the improvement in percentage of inhibition was equal or greater than 25%)
- inhibition at 10 µM (EGF-R; inhibitor at 10 µM, average of two data points, read-out: EGF-R percentage of inhibition): 8%
- inhibition at 10 µM (PAK1; [10]): 5%
- B-RAF-V600E improvement in percentage of inhibition (B-RAF-V600E; [9]): b (This designation indicates that the improvement in percentage of inhibition was equal or greater than 25%)
- inhibition at 10 µM (B-RAF-V600E; inhibitor at 10 µM, average of two data points, read-out: B-RAF-V600E percentage of inhibition): 8%
- inhibition at 10 µM (JAK2): 30%
- DYRK1A reduction of percentage of inhibition (DYRK1A; compound 7 compared to compound 1, 10 µM): more than 25%
- DYRK1A improvement in percentage of inhibition (DYRK1A; [9]): b (This designation indicates that the improvement in percentage of inhibition was equal or greater than 25%)
- inhibition at 10 µM (DYRK1A; [2]): > 70%
- SGK1 improvement in percentage of inhibition (SGK1; [9]): c (This designation indicates that the improvement in percentage of inhibition was equal or greater than 50%)
- inhibition at 10 µM (SGK1; [3]): 12%
- CK1-α1 improvement in percentage of inhibition (CK1-α1; [9]): b (This designation indicates that the improvement in percentage of inhibition was equal or greater than 25%)
- inhibition at 10 µM (CK1-α1; [4]): 8%
- inhibition at 10 µM (IGF1-R; [10]): 9%
- PDGFR-α improvement in percentage of inhibition (PDGFR-α; [9]): b (This designation indicates that the improvement in percentage of inhibition was equal or greater than 25%)
- inhibition at 10 µM (PDGFR-α; inhibitor at 10 µM, average of two data points, read-out: PDGFR-α percentage of inhibition): 53%
- inhibition at 10 µM (AKT1; [10]): 0%
- RPS6KA1 improvement in percentage of inhibition (RPS6KA1; [9]): c (This designation indicates that the improvement in percentage of inhibition was equal or greater than 50%)
- inhibition at 10 µM (RPS6KA1; inhibitor at 10 µM, average of two data points, read-out: RPS6KA1 percentage of inhibition): 45%
- MST1 improvement in percentage of inhibition (MST1; [9]): c (This designation indicates that the improvement in percentage of inhibition was equal or greater than 50%)
- inhibition at 10 µM (MST1; [5]): 29%
- ARK5 improvement in percentage of inhibition (ARK5; [9]): c (This designation indicates that the improvement in percentage of inhibition was equal or greater than 50%)
- inhibition at 10 µM (ARK5; inhibitor at 10 µM, average of two data points, read-out: ARK5 percentage of inhibition): 13%
- inhibition at 10 µM (MET; [10]): 21%
